Reference: patent publication US9346815B2, “5-chloro-2-difluoromethoxyphenyl pyrazolopyrimidine compounds, compositions and methods of use thereof” (Genentech, Inc., priority 2014, dated 2016)

How the values were obtained:
[1] = target: isolated recombinant JAK2 kinase domain (Homo sapiens (Human), UniProt O60674); test: JAK2 enzyme assay (Caliper LabChip, peptide phosphorylation); type: biochemical; conditions: 25 μM ATP
[2] = target: isolated recombinant JAK1 kinase domain (Homo sapiens (Human), UniProt P23458); test: JAK1 enzyme assay (Caliper LabChip, peptide phosphorylation); type: biochemical; conditions: isolated recombinant JAK1 kinase domain, 25 μM ATP
Chain of isolated recombinant JAK1 kinase domain (P23458 875-1153): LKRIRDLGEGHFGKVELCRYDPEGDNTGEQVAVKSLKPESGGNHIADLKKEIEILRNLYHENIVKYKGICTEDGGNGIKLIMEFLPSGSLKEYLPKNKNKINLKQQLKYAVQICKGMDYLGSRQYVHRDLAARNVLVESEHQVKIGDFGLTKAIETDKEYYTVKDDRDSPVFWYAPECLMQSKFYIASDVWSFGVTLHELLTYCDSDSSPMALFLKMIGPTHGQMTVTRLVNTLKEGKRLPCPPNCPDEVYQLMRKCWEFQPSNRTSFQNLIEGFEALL

[3] = tested on: JAK1-dependent STAT6 phosphorylation downstream of IL-13 stimulation in TF-1 human erythroleukemia cells; test: JAK1 pathway assay in TF-1 cells (IL-13-pSTAT6, MSD); type: cell-based; conditions: Homo sapiens, TF-1, TF-1 cells, read-out: IL13-pSTAT6 EC50_TF-1
In short: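 Cells were preincubated with compounds (0.2% DMSO) for 30 min (TF-1, GM-CSF-starved overnight, serum-free OptiMEM, 300,000 cells/well) or 1 h (BEAS-2B, complete medium, 100,000 cells/well) at 37 °C.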

Chain of isolated recombinant JAK2 kinase domain (O60674 849-1124): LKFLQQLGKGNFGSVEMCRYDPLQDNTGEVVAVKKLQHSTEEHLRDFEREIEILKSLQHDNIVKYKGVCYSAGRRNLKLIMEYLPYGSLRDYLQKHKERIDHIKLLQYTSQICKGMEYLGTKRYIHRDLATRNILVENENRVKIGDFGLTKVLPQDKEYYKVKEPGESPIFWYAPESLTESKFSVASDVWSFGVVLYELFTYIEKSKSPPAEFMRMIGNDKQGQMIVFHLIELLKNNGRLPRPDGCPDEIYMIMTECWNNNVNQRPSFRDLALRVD

SMILES | Ki [1] [nM] | Ki [2] [nM] | EC50 [3] [nM]
CN(CC1Oc2ccccc2O1)C1CCN(C(=O)Cn2cc(NC(=O)c3cnn4cccnc34)c(-c3cc(Cl)ccc3OC(F)F)n2)CC1 [Example 112, N-[1-[2-[4-[1,3-benzodioxol-2-ylmethyl(methyl)amino]-1-piperidyl]-2-oxo-ethyl]-3-[5-chloro-2-(difluoromethoxy)phenyl]pyrazol-4-yl]pyrazolo[1,5-a]pyrimidine-3-carboxamide] | 1.01 | 0.45 | 96.3
O=C(Nc1cn(CC(=O)N2CCC(CN3CCC(F)(F)CC3)(c3ccccc3)CC2)nc1-c1cc(Cl)ccc1OC(F)F)c1cnn2cccnc12 [Example 111, N-[3-[5-chloro-2-(difluoromethoxy)phenyl]-1-[2-[4-[(4,4-difluoro-1-piperidyl)methyl]-4-phenyl-1-piperidyl]-2-oxo-ethyl]pyrazol-4-yl]pyrazolo[1,5-a]pyrimidine-3-carboxamide] | 10.6 | 3.1 | 203
CC(=O)N1CCC(CN2C[C@@H]3CN(C(=O)Cn4cc(NC(=O)c5cnn6cccnc56)c(-c5cc(Cl)ccc5OC(F)F)n4)C[C@@H]3C2)CC1 [Example 22, N-[1-[2-[(3aS,6aR)-2-[(1-acetyl-4-piperidyl)methyl]-1,3,3a,4,6,6a-hexahydropyrrolo[3,4-c]pyrrol-5-yl]-2-oxo-ethyl]-3-[5-chloro-2-(difluoromethoxy)phenyl]pyrazol-4-yl]pyrazolo[1,5-a]pyrimidine-3-carboxamide] | 0.95 | 0.94 | 158
O=C(Nc1cn(CC(=O)N2C[C@H]3CN(CCCN4C(=O)Cc5ccccc54)C[C@H]3C2)nc1-c1cc(Cl)ccc1OC(F)F)c1cnn2cccnc12 [Example 54, N-[1-[2-[(3aR,6aS)-2-[3-(2-oxoindolin-1-yl)propyl]-1,3,3a,4,6,6a-hexahydropyrrolo[3,4-c]pyrrol-5-yl]-2-oxo-ethyl]-3-[5-chloro-2-(difluoromethoxy)phenyl]pyrazol-4-yl]pyrazolo[1,5-a]pyrimidine-3-carboxamide] | 0.67 | 0.76 | 15.1
O=C(Nc1cn(CC(=O)N2C[C@H]3CN(CCCN4CCCC4=O)C[C@H]3C2)nc1-c1cc(Cl)ccc1OC(F)F)c1cnn2cccnc12 [Example 18, N-[1-[2-[(3aR,6aS)-2-[3-(2-oxopyrrolidin-1-yl)propyl]-1,3,3a,4,6,6a-hexahydropyrrolo[3,4-c]pyrrol-5-yl]-2-oxo-ethyl]-3-[5-chloro-2-(difluoromethoxy)phenyl]pyrazol-4-yl]pyrazolo[1,5-a]pyrimidine-3-carboxamide] | 0.56 | 0.56 | 274
CN(C)C1CCN(Cc2nc(-c3cc(Cl)ccc3OC(F)F)c(NC(=O)c3cnn4cccnc34)s2)CC1 [Example 260, Pyrazolo[1,5-a]pyrimidine-3-carboxylic acid [4-(5-chloro-2-difluoromethoxy-phenyl)-2-(4-dimethylamino-piperidin-1-ylmethyl)-thiazol-5-yl]-amide] | 2.65 | 7.74 | 68.5
CN(C)C[C@H]1CCCN1C(=O)Cn1cc(NC(=O)c2c(N)nn3cccnc23)c(-c2cc(Cl)ccc2OC(F)F)n1 [Example 78, 2-amino-N-[3-[5-chloro-2-(difluoromethoxy)phenyl]-1-[2-[(2R)-2-[(dimethylamino)methyl]pyrrolidin-1-yl]-2-oxo-ethyl]pyrazol-4-yl]pyrazolo[1,5-a]pyrimidine-3-carboxamide] | 1.38 | 2.08 | 52.4
O=C(Nc1sc(-c2ccc(CN3CC(F)C3)cc2)nc1-c1cc(Cl)ccc1OC(F)F)c1cnn2cccnc12 [Example 256, N-[4-[5-chloro-2-(difluoromethoxy)phenyl]-2-[4-[(3-fluoroazetidin-1-yl)methyl]phenyl]thiazol-5-yl]pyrazolo[1,5-a]pyrimidine-3-carboxamide] | 0.95 | 1.31 | 92
CN1CCC2(CC1)CCN(C(=O)Cn1cc(NC(=O)c3cnn4cccnc34)c(-c3cc(Cl)ccc3OC(F)F)n1)C2 [Example 222, N-[3-[5-chloro-2-(difluoromethoxy)phenyl]-1-[2-(8-methyl-2,8-diazaspiro[4.5]decan-2-yl)-2-oxo-ethyl]pyrazol-4-yl]pyrazolo[1,5-a]pyrimidine-3-carboxamide] | 1.59 | 0.54 | 28.9
C=CCN(CCOc1ccc(C)cc1)C1CCN(C(=O)Cn2cc(NC(=O)c3cnn4cccnc34)c(-c3cc(Cl)ccc3OC(F)F)n2)CC1 [Example 109, N-[1-[2-[4-[allyl-[2-(4-methylphenoxy)ethyl]amino]-1-piperidyl]-2-oxo-ethyl]-3-[5-chloro-2-(difluoromethoxy)phenyl]pyrazol-4-yl]pyrazolo[1,5-a]pyrimidine-3-carboxamide] | 7.3 | 3.22 | 42.9
O=C(Nc1cn(CC(=O)N2C[C@H]3CN(CCCOC(=O)N4CCOCC4)C[C@H]3C2)nc1-c1cc(Cl)ccc1OC(F)F)c1cnn2cccnc12 [Example 51, 3-[(3aR,6aS)-5-[2-[3-[5-chloro-2-(difluoromethoxy)phenyl]-4-(pyrazolo[1,5-a]pyrimidine-3-carbonylamino)pyrazol-1-yl]acetyl]-1,3,3a,4,6,6a-hexahydropyrrolo[3,4-c]pyrrol-2-yl]propyl morpholine-4-carboxylate] | 1.06 | 1.09 | 77.9
CN(Cc1ccc(Cl)c(Cl)c1)C1CCN(C(=O)Cn2cc(NC(=O)c3cnn4cccnc34)c(-c3cc(Cl)ccc3OC(F)F)n2)CC1 [Example 121, N-[3-[5-chloro-2-(difluoromethoxy)phenyl]-1-[2-[4-[(3,4-dichlorophenyl)methyl-methyl-amino]-1-piperidyl]-2-oxo-ethyl]pyrazol-4-yl]pyrazolo[1,5-a]pyrimidine-3-carboxamide] | 0.31 | 0.24 | 140
Nc1nn2cccnc2c1C(=O)Nc1cn([C@H]2CCNC2)nc1-c1cc(Cl)ccc1OC(F)F [Example 186, 2-amino-N-[3-[5-chloro-2-(difluoromethoxy)phenyl]-1-[(3S)-pyrrolidin-3-yl]pyrazol-4-yl]pyrazolo[1,5-a]pyrimidine-3-carboxamide] | 0.2 | 0.71 | 12.3
O=C(Nc1sc(-c2ccc(CN3CC(F)(F)C3)cc2)nc1-c1cc(Cl)ccc1OC(F)F)c1cnn2cccnc12 [Example 257, N-[4-[5-chloro-2-(difluoromethoxy)phenyl]-2-[4-[(3,3-difluoroazetidin-1-yl)methyl]phenyl]thiazol-5-yl]pyrazolo[1,5-a]pyrimidine-3-carboxamide] | 2.1 | 2.93 | 1000
CN(CCOc1ccccc1Br)C1CCN(C(=O)Cn2cc(NC(=O)c3cnn4cccnc34)c(-c3cc(Cl)ccc3OC(F)F)n2)CC1 [Example 105, N-[1-[2-[4-[2-(2-bromophenoxy)ethyl-methyl-amino]-1-piperidyl]-2-oxo-ethyl]-3-[5-chloro-2-(difluoromethoxy)phenyl]pyrazol-4-yl]pyrazolo[1,5-a]pyrimidine-3-carboxamide] | 3.17 | 1.45 | 50
CN1CC[C@H]2CN(C(=O)Cn3cc(NC(=O)c4cnn5cccnc45)c(-c4cc(Cl)ccc4OC(F)F)n3)C[C@H]2C1 [Example 53, N-[1-[2-[(3aR,7aR)-5-methyl-3,3a,4,6,7,7a-hexahydro-1H-pyrrolo[3,4-c]pyridin-2-yl]-2-oxo-ethyl]-3-[5-chloro-2-(difluoromethoxy)phenyl]pyrazol-4-yl]pyrazolo[1,5-a]pyrimidine-3-carboxamide] | 1.22 | 0.61 | 10.9
O=C(Nc1cn(CC(=O)N2CCC3(CCNC3)CC2)nc1-c1cc(Cl)ccc1OC(F)F)c1cnn2cccnc12 [Example 223, N-[3-[5-chloro-2-(difluoromethoxy)phenyl]-1-[2-(2,8-diazaspiro[4.5]decan-8-yl)-2-oxo-ethyl]pyrazol-4-yl]pyrazolo[1,5-a]pyrimidine-3-carboxamide] | 0.72 | 0.44 | 187
O=C(Nc1cn(C2CCN(CCCN3CCSCC3)CC2)nc1-c1cc(Cl)ccc1OC(F)F)c1cnn2cccnc12 [Example 159, N-[3-[5-chloro-2-(difluoromethoxy)phenyl]-1-[1-(3-thiomorpholinopropyl)-4-piperidyl]pyrazol-4-yl]pyrazolo[1,5-a]pyrimidine-3-carboxamide] | 0.24 | 2.32 | 57.8
O=C(Nc1cn(C2CCN(CCCN3CCCC3=O)CC2)nc1-c1cc(Cl)ccc1OC(F)F)c1cnn2cccnc12 [Example 155, N-[3-[5-chloro-2-(difluoromethoxy)phenyl]-1-[1-[3-(2-oxopyrrolidin-1-yl)propyl]-4-piperidyl]pyrazol-4-yl]pyrazolo[1,5-a]pyrimidine-3-carboxamide] | 0.24 | 1.56 | 5.1
Nc1nn2cccnc2c1C(=O)Nc1cn(CC(=O)N2CCC(CO)CC2)nc1-c1cc(Cl)ccc1OC(F)F [Example 266, 2-amino-N-[3-[5-chloro-2-(difluoromethoxy)phenyl]-1-[2-[4-(hydroxymethyl)-1-piperidyl]-2-oxo-ethyl]pyrazol-4-yl]pyrazolo[1,5-a]pyrimidine-3-carboxamide] | 0.1 | 0.24 | 5.9
Nc1nn2cccnc2c1C(=O)Nc1cn(C2CCN(CCCNC(=O)c3ccccc3)CC2)nc1-c1cc(Cl)ccc1OC(F)F [Example 145, 2-amino-N-[1-[1-(3-benzamidopropyl)-4-piperidyl]-3-[5-chloro-2-(difluoromethoxy)phenyl]pyrazol-4-yl]pyrazolo[1,5-a]pyrimidine-3-carboxamide] | 0.16 | 0.57 | 14.8
